We go through 14 compounds from patent publication US9518065B2, “IRAK inhibitors and uses thereof” (NIMBUS IRIS, INC., priority 2013, dated 2016).

As usually defined, the IC50 is the point on the concentration scale where inhibition reaches its midpoint.

One assay has as its target T1, IRAK4 (Homo sapiens, UniProt Q9NWZ3).
T1 construct: purchased CARNA Bioscience 09-145
T1 sequence (Q9NWZ3 1-460): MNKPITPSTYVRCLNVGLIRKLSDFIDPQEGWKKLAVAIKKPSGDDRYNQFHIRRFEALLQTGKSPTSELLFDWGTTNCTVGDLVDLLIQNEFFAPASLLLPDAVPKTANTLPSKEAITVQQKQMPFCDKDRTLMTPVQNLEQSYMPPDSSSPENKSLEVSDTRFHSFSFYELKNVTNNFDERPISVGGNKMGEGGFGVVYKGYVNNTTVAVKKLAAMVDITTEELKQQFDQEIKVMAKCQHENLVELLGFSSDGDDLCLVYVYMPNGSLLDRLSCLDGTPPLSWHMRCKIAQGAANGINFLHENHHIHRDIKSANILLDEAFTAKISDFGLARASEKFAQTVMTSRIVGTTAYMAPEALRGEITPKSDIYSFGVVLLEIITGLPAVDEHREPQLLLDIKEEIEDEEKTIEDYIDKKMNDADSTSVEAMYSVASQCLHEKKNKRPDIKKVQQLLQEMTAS
As to the kind of experiment: IRAK-4 activity inhibition assay (Caliper). The assay is classed as biochemical. The following applies: 3.5 nM IRAK4, 37 μM ATP, 1.5 μM Peptide 8. Here is the method: A 1× kinase base buffer was prepared from 50 mM HEPES, pH 7.5 and 0.0015% Brij-35. A stop buffer was prepared from 100 mM HEPES, pH 7.5, 0.015% Brij-35, 0.2% Coating Reagent #3, and 50 mM EDTA.
Test compound was diluted to 50× of the final desired highest inhibitor concentration in reaction by 100% DMSO. 100 ul of this compound dilution was transferred to a well in a 96-well plate. For example, if desired highest inhibitor concentration in IC50 determination is 100 uM, then prepare 5000 uM of compound DMSO solution in this step.
Test compound was serially diluted by transferring 30 μl to 60 μl of 100% DMSO in the next well and so forth for a total of 10 concentrations. 100 μl of 100% DMSO was added to two empty wells for no compound control and no enzyme control in the same 96-well plate.
A new 96-well plate was marked as intermediate plate. 5 μl of compound serial dilution was transferred from source plate to the corresponding wells of the intermediate plate. 45 μl of 1× kinase base buffer (KB buffer) was added to each well of the intermediate plate. The intermediate plate was placed for 10 min on a shaker.
5 μl of each well was transferred from the 96-well intermediate plate to a 384-well plate in duplicates. For example, A1 of the 96-well plate is transferred to A1 and A2 of the 384-well plate. A2 of the 96-well plate is transferred to A3 and A4 of the 384-well plate, and so on.
IRAK4 and DTT in 1× kinase base buffer was added. The 2.5× enzyme mix contained 8.8 nM IRAK4 and 5 mM DTT.
Peptide 8, ATP, MgCl2 and MnCl2 were added in the 1× kinase base buffer. The 2.5× peptide mix contained 3.75 μM peptide 8, 92.5 μM ATP, 12.5 mM MgCl2 and 2.5 mM MnCl2.
Assay plate already contained 5 μl of compound in 10% DMSO. Added 10 μl of 2.5× enzyme solution to each well of the 384-well assay plate, except no enzyme control wells. The final concentration of IRAK4 in reaction was 3.5 nM. Added 10 μl of 1× kinase base buffer to no enzyme control wells in the assay plate. Incubated at room temperature for 10 min.
Added 10 μl of 2.5× peptide solution to each well of the 384-well assay plate. The final concentration of Peptide 8 and ATP was 1.5 μM and 37 μM, respectively. Incubated at 28° C. for 40 minutes. Added 25 μl of stop buffer to stop reaction. Collected data on Caliper.
Copied conversion % data from Caliper program. Converted conversion % values to percent inhibition values. Percent inhibition=(max-conversion %)/(max-min)*100, where “max” means the conversion % of DMSO control and “min” means the conversion % of no enzyme control.
The compound numbers correspond to the compound numbers in Table 1. Compounds having an activity designated as “A” provided an IC50≦1 μM; compounds having an activity designated as “B” provided an IC50 of 1-5 μM; compounds having an activity designated as “C” provided an IC50 of ≧5 μM. “NA” stands for “not assayed.”

The test system of assay [1] is TNFα and IL8 production in THP-1 cells. The experiment in a line: LPS induced cytokine (TNFα and IL8) production assay in THP-1 cells. The following applies: Homo sapiens, 300 ng/mL LPS. The class given is cell-based. Here is the method: Provided compounds were also assayed in an LPS (Lipopolysacharide) or R848 (TLR-7 agonist) induced cytokine (TNFα and IL8) production assay in THP-1 cells, human white blood cells (hWBC), and whole blood. The exemplary protocol for this assay in THP-1 cells was as follows below.
THP-1 cells from ATCC (TIB-202) were cultured in RPMI Medium 1640 (Invitrogen, Cat No. A10491-01), 10% fetal bovine serum (Invitrogen, Cat No. 10099141, Lot No. 8172882) containing 100 U/mL Penicillin, 100 μg/mL streptomycin (Invitrogen, Cat No. 15140-122), and 50 uM 2-Mercaptoethanol (Invitrogen, Cat No. 21985023). LPS-EK ultra pure (Invivogen, Cat No. tlrl-peklps) was used to induce IL8 and TNFα production, that was detected in the cell culture supernatant by IL8 HTRF kit (Cisbio, Cat No. 62IL8PEB) and TNFα HTRF kit (Cisbio, Cat No. 62TNFPEB), as per manufacturer instructions. Cells were cultured in 96 well assay plates at 100,000 cells per well, and compounds diluted in final 0.3% DMSO were pre-incubated with cells for 1 hour prior to stimulation with 300 ng/mL LPS. Cytokine production in cell supernatant was measured at 5 hours for TNFα and IL8 production, and for 16 hours for IL8 production and assessment of cell viability.
The compound numbers correspond to the compound numbers in Table 1. […] “NA” stands for “not assayed.”

Where [2] appears, read: 5 hours, read-out: TNFα production IC50.
Setting [3] is: 16 hours, read-out: IL8 (16 h) production IC50.

Like-named read-outs stand apart in the source and are kept apart here.

For the compound `Cc1nc2c(N[C@H]3CC[C@H](N4CCC(O)CC4)CC3)nc(Nc3cnn(C)c3)nc2s1` [Compound I-30, 1-((1r,4r)-4-((2-methyl-5-((1-methyl-1H-pyrazol-4-yl)amino)thiazolo[5,4-d]pyrimidin-7-yl)amino)cyclohexyl)piperidin-4-ol], the IC50 against IRAK4 was no more than 1000 nM; in assay [1] (setting [2]), no less than 500 nM.

On to `Cc1nc2c(N[C@H]3CC[C@H](N4CCOCC4)CC3)nc(Nc3cnn(C4CCOCC4)c3)nc2s1` [Compound I-25, 2-methyl-N7-((1r,4r)-4-morpholinocyclohexyl)-N5-(1-(tetrahydro-2H-pyran-4-yl)-1H-pyrazol-4-yl)thiazolo[5,4-d]pyrimidine-5,7-diamine], for which the IC50 was no more than 1000 nM against IRAK4, no more than 250 nM in assay [1] (setting [2]) and no more than 250 nM in assay [1] (setting [3]).

Regarding `CCc1nc2c(N[C@H]3CC[C@H](N4CCC5(CC4)COC5)CC3)nc(Nc3cnn(C)c3)nc2s1` [Compound I-13, N7-((1r,4r)-4-(2-oxa-7-azaspiro[3.5]nonan-7-yl)cyclohexyl)-2-ethyl-N5-(1-methyl-1H-pyrazol-4-yl)thiazolo[5,4-d]pyrimidine-5,7-diamine], the IC50 at IRAK4 is no more than 1000 nM; in assay [1] (setting [2]) it was no more than 250 nM; in assay [1] (setting [3]), no more than 250 nM.

In the case of `Cn1cc(Nc2nc(N[C@H]3CC[C@H](N4CCOCC4)CC3)c3nc(CO)sc3n2)cn1` [Compound I-37, (5-((1-methyl-1H-pyrazol-4-yl)amino)-7-(((1r,4r)-4-morpholino-cyclohexyl)amino)thiazolo[5,4-d]pyrimidin-2-yl)methanol], the values for the IC50 (on IRAK4; in assay [1] (setting [2]); in assay [1] (setting [3])) were no more than 1000 nM, no less than 500 nM and no less than 500 nM, respectively.

As to `Cc1nc2c(N[C@H]3CC[C@H](N4CCOCC4)CC3)nc(Nc3cnn(CCCS(C)(=O)=O)c3)nc2s1` [Compound I-38, 2-methyl-N5-(1-(3-(methylsulfonyl)propyl)-1H-pyrazol-4-yl)-N7-((1r,4r)-4-morpholinocyclohexyl)thiazolo[5,4-d]pyrimidine-5,7-diamine], the IC50 at IRAK4 was no more than 1000 nM; in assay [1] (setting [2]) it was no less than 500 nM; in assay [1] (setting [3]), 250 to 500 nM.

As to `CCc1nc2c(N[C@H]3CC[C@H](N4CCC(O)CC4)CC3)nc(Nc3cnn(C)c3)nc2s1` [Compound I-17, 1-((1r,4r)-4-((2-ethyl-5-((1-methyl-1H-pyrazol-4-yl)amino)-thiazolo[5,4-d]pyrimidin-7-yl)amino)cyclohexyl)piperidin-4-ol], the IC50 is no more than 1000 nM against IRAK4 and no more than 250 nM in assay [1] (setting [2]).

As to `CCc1nc2c(N[C@H]3CC[C@H](N4CCOCC4)CC3)nc(Nc3cnn(CCOCCO)c3)nc2s1` [Compound I-28, 2-(2-(4-((2-ethyl-7-(((1r,4r)-4-morpholinocyclohexyl)amino)thia-zolo[5,4-d]pyrimidin-5-yl)amino)-1H-pyrazol-1-yl)ethoxy)ethan-1-ol], the IC50 was no more than 1000 nM against IRAK4, 250 to 500 nM in assay [1] (setting [2]) and no more than 250 nM in assay [1] (setting [3]).

Turning to `CCc1nc2c(N[C@H]3CC[C@H](N4CCC(F)(F)CC4)CC3)nc(Nc3cnn(C4CCOCC4)c3)nc2s1` [Compound I-19, 2-ethyl-5-N-[1-(oxan-4-yl)-1H-pyrazol-4-yl]-7-N-[trans-4-(4,4-difluoropiperidin-1-yl)cyclohexyl]-[1,3]thiazolo[5,4-d]pyrimidine-5,7-diamine], the IC50 is no more than 1000 nM on IRAK4 and no more than 250 nM in assay [1] (setting [2]).

Regarding `CCc1nc2c(N[C@H]3CC[C@H](N4CCOCC4)CC3)nc(Nc3cnn(CCOC)c3)nc2s1` [Compound I-34, 2-ethyl-N5-(1-(2-methoxyethyl)-1H-pyrazol-4-yl)-N7-((1r,4r)-4-morpholinocyclohexyl)thiazolo[5,4-d]pyrimidine-5,7-diamine], the IC50 against IRAK4 was no more than 1000 nM; in assay [1] (setting [2]), no more than 250 nM; in assay [1] (setting [3]), no more than 250 nM.

For `Cc1nc2c(N[C@H]3CC[C@H](N4CCOCC4)CC3)nc(Nc3cnn(CCS(C)(=O)=O)c3)nc2s1` [Compound I-40, 2-methyl-N5-(1-(2-(methylsulfonyl)ethyl)-1H-pyrazol-4-yl)-N7-((1r,4r)-4-morpholinocyclohexyl)thiazolo[5,4-d]pyrimidine-5,7-diamine], the IC50 against IRAK4 is no more than 1000 nM; in assay [1] (setting [2]), no more than 250 nM; in assay [1] (setting [3]), 250 to 500 nM.

On to `Cc1nc2c(N[C@H]3CC[C@H](N4CCC5(CC4)COC5)CC3)nc(Nc3cnn(C)c3)nc2s1` [Compound I-42, N7-((1r,4r)-4-(2-oxa-7-azaspiro[3.5]nonan-7-yl)cyclohexyl)-2-methyl-N5-(1-methyl-1H-pyrazol-4-yl)thiazolo[5,4-d]pyrimidine-5,7-diamine], for which the concentration for half-maximal inhibition (IC50) at IRAK4 is no more than 1000 nM; in assay [1] (setting [2]), 250 to 500 nM; in assay [1] (setting [3]), 250 to 500 nM.

Take `CCc1nc2c(N[C@H]3CC[C@H](N4CCC5(CC4)CC5)CC3)nc(Nc3cnn(C4CCOCC4)c3)nc2s1` [Compound I-23, N7-((1r,4r)-4-(6-azaspiro[2.5]octan-6-yl)cyclohexyl)-2-ethyl-N5-(1-(tetrahydro-2H-pyran-4-yl)-1H-pyrazol-4-yl)thiazolo[5,4-d]pyrimidine-5,7-diamine]: the IC50 was no more than 1000 nM against IRAK4, 250 to 500 nM in assay [1] (setting [2]) and no more than 250 nM in assay [1] (setting [3]).

For the compound `CCc1nc2c(N[C@H]3CC[C@H](N4CCOCC4)CC3)nc(Nc3cnn(C4CCS(=O)(=O)CC4)c3)nc2s1` [Compound I-10, 4-(4-((2-ethyl-7-(((1r,4r)-4-morpholino-cyclohexyl)amino)-thiazolo[5,4-d]pyrimidin-5-yl)amino)-1H-pyrazol-1-yl)tetrahydro-2H-thiopyran 1,1-dioxide], the results for the IC50 (against IRAK4; in assay [1] (setting [2]); in assay [1] (setting [3])) were no more than 1000 nM, no more than 250 nM and no more than 250 nM, respectively.

Turning to `Cn1cc(Nc2nc(N[C@H]3CC[C@H](N4CCOCC4)CC3)c3nc(C(C)(F)F)sc3n2)cn1` [Compound I-48, 2-(1,1-difluoroethyl)-N5-(1-methyl-1H-pyrazol-4-yl)-N7-((1r,4r)-4-morpholinocyclohexyl)thiazolo[5,4-d]pyrimidine-5,7-diamine], the IC50 against IRAK4 is no more than 1000 nM.
